Test results as given in patent US10913732B2, “Furoxans as therapies for neurodegenerative disorders” (The University of Toledo, priority 2016, dated 2021).

Legend:
PC12 cells = experiment: In vitro neuroprotection against oxygen glucose deprivation (OGD), MTT viability readout; format: cell-based; conditions: OGD 90 min, reoxygenation, furoxan 1, 10 or 25 μM, 24 hr
Experimental: FIGS. 3A-3C: Neuroprotection (FIG. 3A), MTT treatment was used to assess cell viability (FIG. 3B), and pCREB modulation (FIG. 3C) of furoxan compounds. Neuroprotection assay workflow: expose PC12 cells to oxygen glucose deprivation (OGD) for 90 min→reoxygenate and add furoxan (1, 10, or 25 μM)→incubate for 24 hr→MTT readout of viability. Data represented as mean and s.e.m. (n=3). *=p<0.05, **=p<0.01, ***=p<0.001 compared to vehicle control using one way ANOVA analysis with Dunnett's post-hoc test. Red dashed line indicates threshold of vehicle effects. For pCREB modulation, 31b (25 μM) was examined (PC-12 cells, 48 hr incubation) in the following: without insult, with OGD, L-NAME.
It has been shown that furoxans are protective against oxygen glucose deprivation (OGD), a commonly used cellular model of ischemic stroke. PC12 cells were submitted to OGD for 90 minutes followed by reoxygenation and treatment with varying concentrations of selected embodiments of compounds of Formula I (indicated in FIG. 3A). After 24 hr, MTT treatment was used to assess cell viability (FIG. 3B). […] It has been shown previously that 4-N-oxides release NO at a much slower rate than corresponding 2-N-oxides.

Male C57BL/6 mice = experiment: Step-through passive avoidance (STPA), scopolamine-induced amnesia; format: in vivo; conditions: scopolamine 1 mg/kg i.p. alone (vehicle treated: 270 s±30 s), 24 hr after training
Experimental: FIGS. 4A-4B: STPA experimental timeline (FIG. 4A), and results of Male C57BL/6 mice administered either vehicle or 31b via i.p. injection at 60 min or 120 min prior to training in STPA (FIG. 4B). […] Memory retention was measured as latency to enter the dark compartment 24 h after training. Data represented as mean and s.e.m.
The STPA apparatus consisted of an acrylic box with an illuminated compartment connected to a darkened compartment by a small guillotine door. Mice were placed in the illuminated side and were trained against their natural tendency to translocate to the dark side using an aversive stimulus (shock via electrified floor grading). Memory consolidation is measured as the latency times to enter the dark compartment 24 hr after training.
All procedures were performed under the approved IACUC protocol #108451. Male C57BL/6 mice (Envigo), N=9 per group, were habituated at the animal facility for at least 14 days. Ear tags were applied and animals weighed. 2 hr prior to the drug adminstration the mice were individually acclimated to the illuminated compartment to assess tendency to enter the dark chamber (measured in seconds). In this phase no shock was be delivered. […] The mice were then administered either vehicle (95 [0.9% NaCl]:5 [DMSO]) or 31b (0.1, 1, 10, or 20 mg/kg) via i.p. injection (50 μL) at 1 h or 2 h prior to training. […] Mice were individually placed into the light compartment and upon translocation to the dark compartment the guiltine door closed and the mice were trained by delivering a mild adversive stimulus (0.5 mA) via the electrified floor grading of the dark chamber. Each mouse was held in the dark chamber for 30 seconds, then returned to their cage for 120 seconds before the second training session. […] Memory retention was measured 24 hours after training by placing the same mouse in the light chamber and measuring latency to enter the dark chamber (no aversive stimulus is delivered during the retention test). Data was analyzed by one way ANOVA analysis with Dunnett's post-hoc test.

| SMILES | Neuroprotection against OGD (cell viability by MTT) (PC12 cells) | Latency to enter the dark compartment (Male C57BL/6 mice) |
| --- | --- | --- |
| CC1CCN(Cc2no[n+]([O-])c2-c2ccc(Br)cc2)CC1 [33b] | outperform the corresponding 2-N-oxides | – |
| CC1CCN(Cc2no[n+]([O-])c2-c2ccc(OC(F)(F)F)cc2)CC1 [37b, 4-((4-methylpiperidin-1-yl)methyl)-3-(4-(trifluoromethoxy)phenyl)-1,2,5-oxadiazole 2-oxide] | outperform the corresponding 2-N-oxides | – |
| CN1[C@@H]2C[C@@H](OC(=O)[C@H](CO)c3ccccc3)C[C@H]1[C@@H]1O[C@@H]12 [Scopolamine, reference compound] | – | 63.5 s |
| Cc1ccc(-c2c(CN3CCC(C)CC3)no[n+]2[O-])cc1 [38b, 4-((4-methylpiperdin-1-yl)methyl)-3-(p-tolyl)-1,2,5-oxadiazole 2-oxide] | outperform the corresponding 2-N-oxides | – |
| [2H]C1([2H])CC(C)CC([2H])([2H])N1Cc1no[n+]([O-])c1-c1ccc(F)cc1 [41b] | outperform the corresponding 2-N-oxides | – |
